Reference: article PMC10287695, “Non-covalent inhibitors of thioredoxin glutathione reductase with schistosomicidal activity in vivo” (Nature Communications, 2023)

Key:
S. mansoni TGR = molecular target: T1, S. mansoni TGR (Schistosoma mansoni, UniProt Q962Y6); assay: S. mansoni TGR enzyme inhibition (DTNB reduction); assay type: biochemical; conditions: for % inhibition: TGR
T1 construct: made in house
T1 sequence (Q962Y6 1-598): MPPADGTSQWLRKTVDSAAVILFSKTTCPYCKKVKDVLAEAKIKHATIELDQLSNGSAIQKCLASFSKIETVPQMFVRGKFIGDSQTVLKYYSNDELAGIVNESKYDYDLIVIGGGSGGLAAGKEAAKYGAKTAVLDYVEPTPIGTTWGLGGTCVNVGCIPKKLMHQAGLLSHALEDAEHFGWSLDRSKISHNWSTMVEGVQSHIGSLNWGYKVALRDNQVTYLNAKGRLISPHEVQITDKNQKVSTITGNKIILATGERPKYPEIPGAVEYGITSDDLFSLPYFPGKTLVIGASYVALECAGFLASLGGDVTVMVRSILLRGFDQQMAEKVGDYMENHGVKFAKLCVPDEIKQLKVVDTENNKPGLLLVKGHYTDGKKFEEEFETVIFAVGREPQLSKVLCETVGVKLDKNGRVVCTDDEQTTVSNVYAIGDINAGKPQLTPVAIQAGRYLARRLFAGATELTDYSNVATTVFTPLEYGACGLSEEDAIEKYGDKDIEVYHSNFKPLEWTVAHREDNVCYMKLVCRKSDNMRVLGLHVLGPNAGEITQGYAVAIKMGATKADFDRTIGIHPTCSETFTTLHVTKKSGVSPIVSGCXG
Description: (§1) Recombinant TGR, human TrxR1, B. malayi (Bm)TrxR and human GR proteins were expressed and purified as described[20],[69],[79]. The codon optimized sequence for P. falciparum (PfTrxR, https://www.ncbi.nlm.nih.gov/protein/CAA60574.1/) with an N-terminal 6-His tag was synthesized and inserted into pET15b (GenScript) and expressed in BL21 (DE3) cells and purified as described for human GR[20]. TGR and TrxR enzyme inhibition assays were performed in triplicate at 25 °C as described[20] in 0.1 M potassium phosphate (pH 7.4), 10 mM EDTA, 100 µM NADPH and 0.01% Tween-20. […] The reaction was started with addition of an equal volume of DTNB (6 mM) and NADPH (100 µM) and the increase in A412 during the first 3 min was recorded. […] The reaction was preincubated for 15 min. Activity was initiated with the addition of 1 mM GSSG and 100 μM NADPH and initial rates of NADPH oxidation were monitored at 340 nm. The reactions were done in triplicate. The IC50 was calculated in GraphPad Prism.

Human GR = molecular target: T2, Human GR (Homo sapiens, UniProt P00390); assay: Human GR enzyme inhibition (GSSG reduction, NADPH oxidation); assay type: biochemical; conditions: for % inhibition: hGR
T2 construct: made in house
T2 sequence (P00390 44-522): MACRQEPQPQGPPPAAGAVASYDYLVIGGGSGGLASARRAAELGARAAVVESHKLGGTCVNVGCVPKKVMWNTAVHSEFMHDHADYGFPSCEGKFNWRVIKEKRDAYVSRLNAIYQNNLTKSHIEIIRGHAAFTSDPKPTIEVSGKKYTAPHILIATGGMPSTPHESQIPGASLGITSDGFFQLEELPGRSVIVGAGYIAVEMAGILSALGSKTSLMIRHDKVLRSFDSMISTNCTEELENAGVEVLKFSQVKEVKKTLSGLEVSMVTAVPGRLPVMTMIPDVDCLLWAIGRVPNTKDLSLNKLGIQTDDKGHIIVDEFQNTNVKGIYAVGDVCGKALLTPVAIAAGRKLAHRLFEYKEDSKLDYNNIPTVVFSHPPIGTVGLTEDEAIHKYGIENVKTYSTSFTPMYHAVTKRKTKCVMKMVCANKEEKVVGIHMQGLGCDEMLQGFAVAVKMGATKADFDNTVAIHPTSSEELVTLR
Description: Recombinant TGR, human TrxR1, B. malayi (Bm)TrxR and human GR proteins were expressed and purified as described[20],[69],[79]. The codon optimized sequence for P. falciparum (PfTrxR, https://www.ncbi.nlm.nih.gov/protein/CAA60574.1/) with an N-terminal 6-His tag was synthesized and inserted into pET15b (GenScript) and expressed in BL21 (DE3) cells and purified as described for human GR[20]. TGR and TrxR enzyme inhibition assays were performed in triplicate at 25 °C as described[20] in 0.1 M potassium phosphate (pH 7.4), 10 mM EDTA, 100 µM NADPH and 0.01% Tween-20. TGR, human TrxR1 and BmTrxR (all at 4 nM) and PfTrxR (50 nM) were preincubated with the compounds for 15 min. The reaction was started with addition of an equal volume of DTNB (6 mM) and NADPH (100 µM) and the increase in A412 during the first 3 min was recorded. […] […] Activity was initiated with the addition of 1 mM GSSG and 100 μM NADPH and initial rates of NADPH oxidation were monitored at 340 nm. The reactions were done in triplicate. The IC50 was calculated in GraphPad Prism.

[1] = system: S. mansoni newly transformed schistosomula (NTS); assay: Schistosomicidal activity ex vivo, NTS (Cell Titer Glo); assay type: cell-based; conditions: S. mansoni NTS
Description: Oncomelania hupensis subsp. hupensis, Chinese strain, infected with S. japonicum, Chinese strain, and Biomphalaria glabrata, strain NMRI, infected with S. mansoni, strain NMRI, were provided by the NIAID Schistosomiasis Resource Center for distribution through BEI Resources, NIAID, NIH. After infections were patent, snails were exposed to bright light for 1 hr to obtain cercariae. Cercariae were mechanically transformed to schistosomula. Briefly, cercariae were placed on ice for 30 min and then centrifuged at 350 × g for 10 mins. The supernatant was decanted and 2 ml of serum-free M199 medium was added to cercarial pellets and vortexed for 1 min until cercarial tails were detached. NTS were purified by layering on 4 °C Percoll gradient suspension containing Eagle’s minimum essential medium, penicillin-streptomycin (10,000 U per ml penicillin/10,000 U per ml streptomycin), and 1 M HEPES in 0.85% NaCl with cercariae suspension and centrifuged at 500 × g for 15 min. Cercarial pellets were resuspended and washed thrice in serum-free M199 medium and collected at 100 × g for 5 min. NTS (240) were transferred to U-bottom 96 well assay plates containing 200 µl of M199 medium supplemented with 5.5 mM D-glucose, penicillin-streptomycin and 5% heat inactivated fetal bovine serum and incubated at 37 °C in a 5% CO2 incubator overnight.
DMSO formulated compounds were diluted with phenol red free M199 medium or RPMI medium for NTS or juvenile and adult worms, respectively, at <1% DMSO final concentrations. NTS, juvenile and adult worms from overnight cultures were tested against compounds in triplicate. Controls were treated with DMSO alone or 5 µM AF as a positive control in appropriate medium. Worm viability was assessed at 24 or 72 h by measuring ATP content of worms using Cell Titer Glo Assay (Promega) as described. Schistosome viabilities in the presence of the compounds were assessed using this formula: % Viability = Averages of Test / Averages of DMSO Control x 100.

Vero cells = assay: Cytotoxicity in mammalian cells (Cell Titer Glo); assay type: cell-based; conditions: Vero cells
Description: Following overnight incubation, formulated DMSO-compound stock solutions were diluted with DMEM at <1% DMSO final concentrations. […] Vero cells treated similarly with different concentrations of PZQ, MZM and AF (Cayman Chemicals) were used as positive controls.

Human TrxR1 = molecular target: T3, Human TrxR1 (Homo sapiens, UniProt Q16881); assay: Human TrxR1 enzyme inhibition (DTNB reduction); assay type: biochemical; conditions: 15 minutes pre-incubation
T3 construct: made in house
T3 sequence (Q16881 1-499 isoform Q16881-5): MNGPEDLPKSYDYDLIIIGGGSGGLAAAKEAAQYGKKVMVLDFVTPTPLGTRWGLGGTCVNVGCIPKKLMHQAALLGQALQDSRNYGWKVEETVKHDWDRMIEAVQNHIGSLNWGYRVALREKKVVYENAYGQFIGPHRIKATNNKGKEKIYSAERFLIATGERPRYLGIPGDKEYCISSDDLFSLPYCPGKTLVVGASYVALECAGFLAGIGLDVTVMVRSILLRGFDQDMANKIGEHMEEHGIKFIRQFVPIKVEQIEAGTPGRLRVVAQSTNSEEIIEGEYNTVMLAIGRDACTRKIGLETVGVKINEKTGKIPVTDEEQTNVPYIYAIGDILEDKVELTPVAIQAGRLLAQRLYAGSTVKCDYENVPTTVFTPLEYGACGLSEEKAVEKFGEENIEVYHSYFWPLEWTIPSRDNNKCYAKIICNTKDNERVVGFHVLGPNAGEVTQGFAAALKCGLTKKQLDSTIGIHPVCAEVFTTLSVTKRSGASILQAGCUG
Description: as §1

[2] = 15 minutes pre-incubation, compound 15 µM
[3] = 15 minutes pre-incubation, compound 30 µM
[4] = 15 minutes pre-incubation, compound 66.7 µM
[5] = 6 hours pre-incubation, compound 15 µM
[6] = 6 hours pre-incubation, compound 30 µM
[7] = 6 hours pre-incubation, compound 66.7 µM
[8] = 15 minutes pre-incubation, 15 µM
[9] = 15 minutes pre-incubation, 30 µM
[10] = 15 minutes pre-incubation, 66.7 µM

## Cc1oc(C2CCCCC2)nc1CN[C@@H]1C[C@@H]2C[C@H]([C@H]1C)C2(C)C [C4]
S. mansoni TGR; [2]
  % inhibition: 4.307%
S. mansoni TGR; [3]
  % inhibition: 7.284%
S. mansoni TGR; [4]
  % inhibition: 12.4488%
S. mansoni TGR; [5]
  % inhibition: 20.5703%
S. mansoni TGR; [6]
  % inhibition: 43.128%
S. mansoni TGR; [7]
  % inhibition: 68.6238%
Human GR; [2]
  % inhibition: -0.5314%
Human GR; [3]
  % inhibition: -1.471%
Human GR; [4]
  % inhibition: -0.894%
Human GR; [5]
  % inhibition: -2.859%
Human GR; [6]
  % inhibition: -0.4408%
Human GR; [7]
  % inhibition: -0.3554%
[1]; Conc. 1 µM
  % viability: 51.9254%
[1]; Conc. 5 µM
  % viability: 22.4326%
[1]; Conc. 15 µM
  % viability: 2.552%
[1]; Conc. 30 µM
  % viability: 0.3078%
[1]; Conc. 50 µM
  % viability: 0.1166%
Vero cells; Conc. 5 µM
  % viability: 99.7864%
Vero cells; Conc. 10 µM
  % viability: 99.8193%
Vero cells; Conc. 25 µM
  % viability: 95.3884%
Vero cells; Conc. 35 µM
  % viability: 94.379%
Vero cells; Conc. 50 µM
  % viability: 91.2714%

## C[C@@H]1[C@H]2C[C@@H](C[C@H]1NC(=O)Cc1nc3ccccc3n1C1CCCCC1)C2(C)C [C10]
S. mansoni TGR; 15 minutes pre-incubation, 1 µM
  TGR % inhibition: 1.833%
S. mansoni TGR; 15 minutes pre-incubation, 5 µM
  TGR % inhibition: 5.968%
S. mansoni TGR; [8]
  TGR % inhibition: 42.2698%
S. mansoni TGR; [9]
  TGR % inhibition: 76.1929%
S. mansoni TGR; [10]
  TGR % inhibition: 82.1691%
Human TrxR1; 1 µM
  hsTrxR % inhibition: 3.958%
Human TrxR1; 5 µM
  hsTrxR % inhibition: 29.0366%
Human TrxR1; 15 µM
  hsTrxR % inhibition: 63.1349%
Human TrxR1; 30 µM
  hsTrxR % inhibition: 85.1161%
Human TrxR1; 66.7 µM
  hsTrxR % inhibition: 92.1898%
Human GR; [8]
  hGR % inhibition: -6.32%
Human GR; [9]
  hGR % inhibition: -6.329%
Human GR; [10]
  hGR % inhibition: 1.247%
Human GR; 6 hours pre-incubation, 15 µM
  hGR % inhibition: -1.804%
Human GR; 6 hours pre-incubation, 30 µM
  hGR % inhibition: -1.476%
Human GR; 6 hours pre-incubation, 66.7 µM
  hGR % inhibition: -1.27%
